For orientation: AC50 means the concentration at which the activity in the assay is half-maximal. What is called EC50 is the concentration at which the effect is half-maximal.

Active and inactive are the calls of the source. A value given as a limit tells only on which side of the number the result lay.

We go through seven molecules from ChEMBL document CHEMBL1201862, “PubChem BioAssay data set” (2004).

Experiment [1] is described as follows: LMP1-driven NF-kB reporter inhibition, dose response, cell-based, luciferase reporter, luminescence, dry powder, set 2 (AID 624376). The experiment is classed as functional.
The target in experiment [2] is T1, Interleukin-8 (Homo sapiens, UniProt P10145). Kind of experiment: Dose Response confirmation of uHTS small molecule hits for cystic fibrosis induced NFkb Inhibitors in a PAF-induced IL8 counterscreen. The experiment is classed as functional. The settings on record: read-out: IC50_Mean.
Experiment [3] addresses T1, Interleukin-8. As to the kind of experiment: Dose Response confirmation of uHTS small molecule hits for cystic fibrosis induced NFkb Inhibitors in a TNFa-induced IL8 counterscreen. Format: functional. Conditions: read-out: IC50_Mean. A general note: A counterscreen serves to expose hits that act by an unwanted route or on another target.
Experiment [4] concerns HEK293. As to the kind of experiment: inhibitors of LMP1-driven NF-kB reporter, dose response, cell-based, HEK293, luciferase, cherry-pick (AID 588343). The settings on record: Homo sapiens. Format: functional.
Experiment [5] addresses Low molecular weight phosphotyrosine protein phosphatase (Homo sapiens, UniProt P24666). The experiment is classed as functional. Conditions: read-out: IC50_Mean.
The target in experiment [6] is T2, Calpain-2 catalytic subunit (Sus scrofa, UniProt P43367).
T2 sequence (P43367 whole entry): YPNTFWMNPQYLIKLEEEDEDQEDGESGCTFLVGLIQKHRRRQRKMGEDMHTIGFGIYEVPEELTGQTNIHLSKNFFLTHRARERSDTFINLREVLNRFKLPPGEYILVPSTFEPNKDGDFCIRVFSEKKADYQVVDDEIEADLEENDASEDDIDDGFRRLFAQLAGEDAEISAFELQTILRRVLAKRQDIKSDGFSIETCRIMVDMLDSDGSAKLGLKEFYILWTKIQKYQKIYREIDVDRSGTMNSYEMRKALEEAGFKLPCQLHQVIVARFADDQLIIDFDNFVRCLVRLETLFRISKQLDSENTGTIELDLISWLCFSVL
Kind of experiment: pig calpain II inhibitor potency, dose response, biochemical, fluorogenic peptide substrate (AID 1420). Format: functional.

A short description of experiment [7]: cytotoxicity toward NIH3T3 fibroblasts, dose response, counter-screen, cell-based, ATP luminescence, mouse fibroblasts (AID 2010).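 Note: cells exposed to compound for about 90 hours before reading.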 Format: functional.
Experiment [8] is described as follows: C. albicans growth with fluconazole, confirmation, fluorescence, retest (AID 2467). Format: functional, cell-based.
A short description of experiment [9]: inhibitors of HIV Env-driven cell fusion, dose response, cherry-pick (AID 652057). The experiment is classed as functional, cell-based.
Experiment [10] in a line: CEM21 lymphoblast cell cytotoxicity, dose response, cytotoxicity control for viral fusion inhibitor project, CellTiter-Glo luminescence, cherry-picked (AID 652042).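 Note: potency for signal decrease meaning cytotoxicity.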 Format: functional, cell-based. On the technique in general: ATP-based viability assays read luminescence as a measure of living cells.
Experiment [11] has as its target T3, Galanin receptor type 3 (Homo sapiens, UniProt O60755).
T3 sequence (O60755 whole entry): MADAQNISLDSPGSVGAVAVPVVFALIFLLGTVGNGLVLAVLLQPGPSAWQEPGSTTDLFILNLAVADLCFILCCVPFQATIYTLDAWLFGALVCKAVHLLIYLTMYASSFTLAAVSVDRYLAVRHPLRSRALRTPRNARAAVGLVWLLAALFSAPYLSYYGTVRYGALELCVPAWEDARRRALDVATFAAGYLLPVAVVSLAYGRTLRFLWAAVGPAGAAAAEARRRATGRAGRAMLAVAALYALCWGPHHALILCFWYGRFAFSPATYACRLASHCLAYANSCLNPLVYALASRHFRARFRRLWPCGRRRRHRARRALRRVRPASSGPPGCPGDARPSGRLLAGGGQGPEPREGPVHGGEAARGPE
Kind of experiment: Fluorescence-based cell-based primary high throughput dose response assay to identify antagonists of the Galanin Receptor 3 (GalR3). Format: functional.

A short description of experiment [12]: ZM109 Env clade C HIV-1 fusion inhibitors, dose response, HeLa effector, CEM target cells, luciferase, cherry-pick (AID 652058). Format: functional, cell-based.
The nature of experiment [13]: inhibitors of clade B AD8 Env fusion, dose response, cell-based, cherry-pick (AID 652062).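 Note: luciferase signal from cell-cell fusion driven by HIV-1 clade B AD8 Env; potency is for inhibitors of fusion seen as a drop in luminescence.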 Format: functional.
The nature of experiment [14]: cells.
Experiment [15] in a line: cells. Format: functional, cell-based. Conditions: HEK-CNG.
Experiment [16] is described as follows: inhibitors of intracellular T. cruzi replication, confirmation, NIH3T3 host cells, beta-gal luminescence (AID 2044).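 Note: intracellular parasites grown in NIH/3T3 mouse fibroblasts as host cells; luminescent beta-galactosidase reporter signal from transgenic T. cruzi replicating inside host cells; inhibitors lower the luminescence signal.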 The experiment is classed as functional, cell-based.
A short description of experiment [17]: NIH-3T3 fibroblast cytotoxicity, dose response, cytotoxicity control, cell-based, fluorescence, Alamar Blue, secondary assay (AID 2327).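 Note: NIH-3T3 mouse fibroblasts cultured with fluconazole at 8 µg/mL.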 Format: functional.
Experiment [18] concerns the target Paired box protein Pax-8 (Homo sapiens, UniProt Q06710). Kind of experiment: inhibitors of PAX8-driven TPO luciferase reporter, dose response, RMG-I cells, cherry-pick (AID 687027).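 Note: luciferase reporter driven by Pax8 target thyroperoxidase promoter measured by SteadyGlo luminescence.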 Format: functional, cell-based. (In a reporter assay the amount or activity of a reporter protein is the signal.)
The target in experiment [19] is T4, Endoribonuclease toxin MazF (Escherichia coli K-12, UniProt P0AE70).
T4 sequence (P0AE70 whole entry): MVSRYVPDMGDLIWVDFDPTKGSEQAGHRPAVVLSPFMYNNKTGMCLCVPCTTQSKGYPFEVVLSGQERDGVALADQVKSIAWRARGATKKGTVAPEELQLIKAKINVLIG
Kind of experiment: MazF toxin RNase activators, dose response, biochemical, fluorescence, single-stranded RNA substrate, uHTS hits (AID 588481). Format: functional.

Experiment [20] deals with Benomyl/methotrexate resistance protein (Candida albicans, UniProt P28873). Kind of experiment: CaMdr1 efflux pump inhibitor potency, dose response, singleplex, Cherry Pick1 hits (AID 588608). The experiment is classed as functional.
Experiment [21] addresses T4, Endoribonuclease toxin MazF. As to the kind of experiment: fluorescent RNA oligo signal without MazF, dose response, counter-screen for MazEF activator project, biochemical, fluorescence, single-stranded RNase substrate (AID 588502). The experiment is classed as functional.
Experiment [22] concerns the target Tyrosine-protein phosphatase non-receptor type 5 (Homo sapiens, UniProt P54829). Kind of experiment: STEP phosphatase inhibitors, confirmation, biochemical, fluorescence intensity, uHTS hits (AID 602372). Format: functional. Conditions: read-out: IC50_Mean.
For experiment [23], the target named is Tyrosine-protein phosphatase non-receptor type 11 (Homo sapiens, UniProt Q06124). As to the kind of experiment: SHP2 phosphatase inhibition, dose response, selectivity assay for STEP inhibitor project, biochemical (AID 602367). The experiment is classed as functional. The settings on record: read-out: IC50_Mean.
Experiment [24] concerns the target Dual specificity protein phosphatase 3 (Homo sapiens, UniProt P51452). As to the kind of experiment: VHR phosphatase inhibition, dose response, selectivity assay for STEP inhibitor project, biochemical (AID 602374). The settings on record: read-out: IC50_Mean. Format: functional.
The target in experiment [25] is Beta-lactamase (Pseudomonas aeruginosa, UniProt Q79MP6).
Experiment [26] deals with Beta Lactamase (Pseudomonas aeruginosa, UniProt Q932Y6).
Experiment [27] deals with Beta-lactamase (Salmonella choleraesuis (strain SC-B67), UniProt Q5J463).
Chain of Beta-lactamase (Salmonella choleraesuis (strain SC-B67), UniProt Q5J463) (Q5J463 whole entry): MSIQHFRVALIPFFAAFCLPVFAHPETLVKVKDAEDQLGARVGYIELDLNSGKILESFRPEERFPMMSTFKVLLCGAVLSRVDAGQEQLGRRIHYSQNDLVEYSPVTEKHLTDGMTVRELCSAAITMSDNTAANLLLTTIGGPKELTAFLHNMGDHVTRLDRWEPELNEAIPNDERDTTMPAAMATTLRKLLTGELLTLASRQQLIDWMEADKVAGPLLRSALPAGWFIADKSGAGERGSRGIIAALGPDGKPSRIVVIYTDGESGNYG

T1 sequence (P10145 whole entry): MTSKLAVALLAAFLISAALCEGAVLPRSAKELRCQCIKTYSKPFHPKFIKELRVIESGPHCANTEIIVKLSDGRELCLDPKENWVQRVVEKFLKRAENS
Chain of Paired box protein Pax-8 (Q06710 whole entry): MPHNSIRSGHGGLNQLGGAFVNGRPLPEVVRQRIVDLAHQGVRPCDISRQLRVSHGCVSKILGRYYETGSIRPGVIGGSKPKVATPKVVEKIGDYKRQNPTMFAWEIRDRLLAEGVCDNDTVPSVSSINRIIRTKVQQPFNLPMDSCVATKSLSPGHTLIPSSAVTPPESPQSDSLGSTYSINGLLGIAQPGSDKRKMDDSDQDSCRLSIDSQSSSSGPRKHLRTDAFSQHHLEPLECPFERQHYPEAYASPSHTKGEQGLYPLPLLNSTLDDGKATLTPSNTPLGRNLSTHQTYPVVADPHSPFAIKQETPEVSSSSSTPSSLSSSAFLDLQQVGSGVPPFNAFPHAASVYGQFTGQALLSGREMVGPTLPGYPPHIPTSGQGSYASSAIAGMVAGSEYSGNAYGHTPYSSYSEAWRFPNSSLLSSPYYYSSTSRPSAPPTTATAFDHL
Chain of Tyrosine-protein phosphatase non-receptor type 5 (P54829 whole entry): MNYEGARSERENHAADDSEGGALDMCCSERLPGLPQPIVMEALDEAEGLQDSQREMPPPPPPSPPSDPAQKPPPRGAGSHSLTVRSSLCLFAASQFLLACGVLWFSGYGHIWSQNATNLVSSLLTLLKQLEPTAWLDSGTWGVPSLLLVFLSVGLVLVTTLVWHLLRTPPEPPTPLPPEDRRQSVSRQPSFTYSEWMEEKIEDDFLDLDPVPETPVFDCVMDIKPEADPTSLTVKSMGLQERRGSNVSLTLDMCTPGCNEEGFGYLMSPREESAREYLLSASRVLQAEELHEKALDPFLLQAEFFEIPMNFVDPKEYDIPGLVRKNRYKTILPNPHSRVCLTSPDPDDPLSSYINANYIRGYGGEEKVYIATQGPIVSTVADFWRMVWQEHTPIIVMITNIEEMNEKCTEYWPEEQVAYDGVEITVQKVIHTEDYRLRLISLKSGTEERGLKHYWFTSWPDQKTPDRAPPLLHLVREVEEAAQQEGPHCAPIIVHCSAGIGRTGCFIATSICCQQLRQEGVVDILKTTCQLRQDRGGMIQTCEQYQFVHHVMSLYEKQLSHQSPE
Chain of Beta-lactamase (Pseudomonas aeruginosa, UniProt Q79MP6) (Q79MP6 whole entry): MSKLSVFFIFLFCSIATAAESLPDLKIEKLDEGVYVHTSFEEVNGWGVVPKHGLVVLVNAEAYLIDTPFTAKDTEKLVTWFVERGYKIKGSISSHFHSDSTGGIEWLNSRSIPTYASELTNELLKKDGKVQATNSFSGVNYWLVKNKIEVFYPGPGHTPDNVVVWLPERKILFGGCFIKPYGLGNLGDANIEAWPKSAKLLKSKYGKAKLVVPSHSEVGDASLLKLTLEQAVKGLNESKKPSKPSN
Chain of Benomyl/methotrexate resistance protein (P28873 whole entry): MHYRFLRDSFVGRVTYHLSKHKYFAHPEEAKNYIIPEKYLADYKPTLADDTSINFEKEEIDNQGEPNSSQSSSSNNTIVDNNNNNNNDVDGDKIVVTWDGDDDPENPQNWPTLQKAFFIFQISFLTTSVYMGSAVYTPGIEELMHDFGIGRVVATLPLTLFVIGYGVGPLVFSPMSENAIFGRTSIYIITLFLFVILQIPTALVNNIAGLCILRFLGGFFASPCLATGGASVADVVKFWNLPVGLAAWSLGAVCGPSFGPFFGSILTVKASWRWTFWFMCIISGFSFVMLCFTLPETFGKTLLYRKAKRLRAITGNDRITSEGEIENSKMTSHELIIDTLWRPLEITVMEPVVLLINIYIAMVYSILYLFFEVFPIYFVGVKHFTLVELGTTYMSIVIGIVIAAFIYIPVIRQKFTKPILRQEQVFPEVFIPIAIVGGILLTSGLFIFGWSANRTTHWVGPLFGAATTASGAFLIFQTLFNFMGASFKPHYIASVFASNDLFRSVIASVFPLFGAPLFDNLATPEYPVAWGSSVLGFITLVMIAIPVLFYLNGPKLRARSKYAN
Chain of Beta Lactamase (Q932Y6 whole entry): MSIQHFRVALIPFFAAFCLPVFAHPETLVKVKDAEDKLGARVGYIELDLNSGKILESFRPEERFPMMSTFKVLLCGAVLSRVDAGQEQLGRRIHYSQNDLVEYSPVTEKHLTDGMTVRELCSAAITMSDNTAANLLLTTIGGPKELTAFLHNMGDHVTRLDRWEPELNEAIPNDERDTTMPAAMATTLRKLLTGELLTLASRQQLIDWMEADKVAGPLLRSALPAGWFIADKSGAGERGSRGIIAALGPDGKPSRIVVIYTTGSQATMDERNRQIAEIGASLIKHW
Chain of Low molecular weight phosphotyrosine protein phosphatase (P24666 whole entry): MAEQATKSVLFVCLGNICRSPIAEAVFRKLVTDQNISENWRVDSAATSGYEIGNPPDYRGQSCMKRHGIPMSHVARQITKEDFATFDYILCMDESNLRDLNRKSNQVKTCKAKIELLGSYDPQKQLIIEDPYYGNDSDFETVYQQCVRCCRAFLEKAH
Chain of Tyrosine-protein phosphatase non-receptor type 11 (Q06124 whole entry): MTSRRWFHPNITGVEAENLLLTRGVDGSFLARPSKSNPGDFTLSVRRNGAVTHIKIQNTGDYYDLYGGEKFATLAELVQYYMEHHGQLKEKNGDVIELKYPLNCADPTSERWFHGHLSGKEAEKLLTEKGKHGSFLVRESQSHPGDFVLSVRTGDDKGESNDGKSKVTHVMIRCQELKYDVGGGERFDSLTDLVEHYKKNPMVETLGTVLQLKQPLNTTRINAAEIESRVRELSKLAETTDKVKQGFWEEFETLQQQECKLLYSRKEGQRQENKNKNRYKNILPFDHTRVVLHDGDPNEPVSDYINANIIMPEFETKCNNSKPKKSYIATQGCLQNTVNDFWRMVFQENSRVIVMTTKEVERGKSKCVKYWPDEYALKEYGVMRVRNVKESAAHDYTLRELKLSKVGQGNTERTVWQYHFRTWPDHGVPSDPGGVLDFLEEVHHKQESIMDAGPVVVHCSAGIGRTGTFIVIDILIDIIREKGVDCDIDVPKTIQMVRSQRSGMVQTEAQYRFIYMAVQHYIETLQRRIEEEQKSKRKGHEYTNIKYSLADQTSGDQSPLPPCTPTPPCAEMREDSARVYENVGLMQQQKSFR
Chain of Dual specificity protein phosphatase 3 (P51452 whole entry): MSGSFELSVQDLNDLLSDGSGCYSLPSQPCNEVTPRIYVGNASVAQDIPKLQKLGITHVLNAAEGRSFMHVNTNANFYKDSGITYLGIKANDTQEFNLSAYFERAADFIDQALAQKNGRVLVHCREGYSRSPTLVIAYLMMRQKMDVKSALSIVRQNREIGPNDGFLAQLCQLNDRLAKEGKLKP

In [1], `O=C(Cc1ccccn1)NCC[C@H]1CC[C@H](NC(=O)Nc2ccc(Cl)cc2)[C@H](CO)O1` displayed an AbsAC35 of 142.06 µM.

As to `O=C(Nc1ccc(C(=O)N2CCOCC2)cc1)Nc1cccc(C(F)(F)F)c1`, the values for the IC50 in [2] and in [3] were 41.9 µM (inactive) and > 79 µM (inactive), respectively. Moreover, in [4], the AC50 is 3.04 µM (active).

For `O=C(O)[C@@H]1[C@H]2C[C@H]3c4[nH]c5ccccc5c4CCN3C[C@@H]2CC[C@@H]1O`, the IC50 in [5] was 67.6 µM (inactive).

On to `CCCCCCCn1c2c(c(=N)c3c1CCC3)CCCC2`, for which the IC50 is 16.7 µM (not active) in experiment [6] and > 1.11 µM (active) in experiment [11]. The EC50 in experiment [7] is > 60 µM (not active); in [8], 2.79 µM (active); in [14], 0.006 µM (active); in [15], 27.7 µM (inactive); in experiment [16], < 0.1 µM (active); in experiment [17] it was > 160 µM (inactive). The AC50 in experiment [9] is 3.53 µM (active); in experiment [10] it was 6.62 µM (active); in [12], 3.24 µM (active); in experiment [13], 2.6 µM (active); in experiment [18] it was 0.677 µM (active).

`COc1ccc(/C=C2\SC(c3ccc(C)cc3)=NC2=O)cc1OC`: the EC50 in experiment [19] is > 99 µM (inactive); in experiment [20], 5.12 µM (active); in [21] it was > 99 µM (inactive).

In the case of `Cc1ccc(NC(=O)CN2C(=O)S/C(=C\c3ccc(OCC(=O)O)c(Br)c3)C2=O)cc1`, the IC50 in [22] was > 80 µM (inactive); in experiment [23], 6.33 µM (active); in [24], 6.91 µM (active).

In the case of `CC(=O)N(c1cccc(C)c1)C1SC(=O)N(c2ccccc2)C1=O` (configuration not stated), the IC50 in experiment [25] was 30.8 µM (inactive); in [26], 54.3 µM (inactive); in [27], > 59.6 µM (inactive).
